Data reported in US20110028455A1, “Indole-substituted 3-cyanopyridines As Kinase Inhibitors” (Wyeth LLC, priority 2007, published 2011).

Key:
[1] = biological target: T1, human PKCθ full length enzyme (Homo sapiens, UniProt Q04759); experiment: PKCθ IMAP Assay; type: biochemical; conditions: PKCθ 1 nM; ATP 6 μM; peptide 100 nM; DMSO 5%; 25 minutes at room temperature; FP readout; read-out: PKC-Theta Mean IC50
T1 construct: human PKCθ full length enzyme (Panvera Cat# P2996); purchased Panvera P2996
T1 sequence (Q04759 whole entry): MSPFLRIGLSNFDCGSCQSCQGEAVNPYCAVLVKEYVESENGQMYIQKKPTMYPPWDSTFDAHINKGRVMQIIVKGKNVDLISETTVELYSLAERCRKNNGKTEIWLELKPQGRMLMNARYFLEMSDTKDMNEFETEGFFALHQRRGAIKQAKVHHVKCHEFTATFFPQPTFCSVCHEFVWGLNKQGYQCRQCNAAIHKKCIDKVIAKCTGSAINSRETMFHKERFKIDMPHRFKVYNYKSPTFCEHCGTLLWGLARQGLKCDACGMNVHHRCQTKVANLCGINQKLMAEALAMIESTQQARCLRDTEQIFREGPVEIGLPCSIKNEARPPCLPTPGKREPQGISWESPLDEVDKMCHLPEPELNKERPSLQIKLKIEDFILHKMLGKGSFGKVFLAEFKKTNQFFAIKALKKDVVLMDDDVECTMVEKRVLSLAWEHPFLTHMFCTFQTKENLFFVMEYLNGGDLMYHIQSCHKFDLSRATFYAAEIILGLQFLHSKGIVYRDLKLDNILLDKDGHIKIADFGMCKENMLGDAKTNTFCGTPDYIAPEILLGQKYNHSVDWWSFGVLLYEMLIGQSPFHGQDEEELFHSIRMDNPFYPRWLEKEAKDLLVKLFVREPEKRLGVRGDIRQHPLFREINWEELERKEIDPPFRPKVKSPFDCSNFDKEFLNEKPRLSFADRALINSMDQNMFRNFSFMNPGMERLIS
Method: The materials used include the following: human PKCθ full length enzyme (Panvera Cat# P2996); substrate peptide: 5FAM-RFARKGSLRQKNV-OH (Molecular Devices, RP7032); ATP (Sigma Cat # A2383); DTT (Pierce, 20291); 5× kinase reaction buffer (Molecular Devices, R7209); 5× binding buffer A (Molecular Devices, R7282), 5× binding buffer B (Molecular Devices, R7209); IMAP Beads (Molecular Devices, R7284); and 384-well plates (Corning Costar, 3710).
The reaction buffer was prepared by diluting the 5× stock reaction buffer and adding DTT to obtain a concentration of 3.0 mM. The binding buffer was prepared by diluting the 5× binding buffer A. A master mix solution was prepared using a 90% dilution of the reaction buffer containing 2×ATP (12 uM) and 2× peptide (200 nm). Compounds were diluted in DMSO to 20× of the maximum concentration for the IC50 measurement. 27 μl of the master mix solution for each IC50 curve was added to the first column in a 384-well plate and 3 μl of 20× compound in DMSO was added to each well.
The final concentration of compound was 2× and 10% DMSO. DMSO was added to the rest of the master mix to increase the concentration to 10%. 10 μl of the master mix containing 10% DMSO was added to the rest of the wells on the plate except the 2nd column. 20 μl was transferred from the first column to the 2nd column. The compounds were serially diluted in 2:1 ratio starting from the 2nd column. A 2×(2 nM) PKCθ solution was made in the reaction buffer. 10 μl of the PKCθ solution was added to every well to achieve these final concentrations: PKCθ-1 nM; ATP-6 μM; peptide-100 nM; DMSO-5%. Samples were incubated for 25 minutes at room temperature. The binding reagent was prepared by diluting the beads in 1× binding buffer to 800:1. 50 μl of the binding reagent was added to every well and incubated for 20 minutes. FP was measured using Envision2100 (PerkinElmer Life Sciences). Wells with no ATP and wells with no enzyme were used as controls.

[2] = Metabolic stability in rat liver microsomes; type: in vitro ADME; conditions: 30 minutes incubation, remaining compound by HPLC, 6-Me compounds of the invention, read-out: Rat Microsome Stability of 6-Me cyanopyridine Compounds (approximate half life)
Method: In order to probe the metabolic stability of the compounds of the invention, a series of compounds were selected for stability testing in rat liver microsomes. A DMSO solution of each compound was incubated for 30 minutes in the presence of rat liver homogenate. The percentage of remaining compound was assessed by HPLC. An approximate half life was calculated from the percentage of remaining compound. Table II, below, illustrates a comparison of the in vitro microsomal half life of the selected compounds verses a series of related compounds lacking the C-6 alkyl group. […] It is generally accepted in the industry that improved in vitro metabolic stability frequently translates into improved in vivo metabolic stability. Improved metabolic stability may translate to increased in vivo exposure levels.

IC50 [1]	melting point	half-life [2]	SMILES
30 nM	200 to 201 °C	–	Cc1ncc(C#N)c(Nc2ccc3[nH]ccc3c2C)c1-c1ccc(OCCCl)cc1 [Example 12, 5-[4-(2-chloroethoxy)phenyl]-6-methyl-4-[(4-methyl-1H-indol-5-yl)amino]nicotinonitrile]
150 nM	185 to 186 °C	–	Cc1ncc(C#N)c(Nc2cccc3[nH]ccc23)c1-c1ccc(OCCCl)cc1 [Example 13, 5-[4-(2-chloroethoxy)phenyl]-4-(1H-indol-4-ylamino)-6-methylnicotinonitrile]
31 nM	183 to 184 °C	> 30 min	Cc1ncc(C#N)c(Nc2ccc3[nH]ccc3c2C)c1-c1ccc(OCCN2CCN(C)CC2)cc1 [Example 14, 6-methyl-4-[(4-methyl-1H-indol-5-yl)amino]-5-{4-[2-(4-methylpiperazin-1-yl)ethoxy]phenyl}nicotinonitrile]

More lines, now with the values behind:

SMILES	IC50 [1]	melting point	half-life [2]
Cc1ncc(C#N)c(Nc2cccc3[nH]ccc23)c1-c1cc2ccccc2o1 [Example 10, 5-(1-benzofuran-2-yl)-4-(1H-indol-4-ylamino)-6-methylnicotinonitrile]	113 nM	192 to 193 °C	–
Cc1ncc(C#N)c(Nc2ccc3[nH]ccc3c2C)c1-c1cc2ccccc2o1 [Example 11, 5-(1-benzofuran-2-yl)-6-methyl-4-[(4-methyl-1H-indol-5-yl)amino]nicotinonitrile]	13 nM	154 to 155 °C	–
Cc1ncc(C#N)c(Nc2ccc3[nH]ccc3c2C)c1-c1cc2cc(C=O)ccc2o1 [Example 15, 5-(5-formyl-1-benzofuran-2-yl)-6-methyl-4-[(4-methyl-1H-indol-5-yl)amino]nicotinonitrile]	12 nM	168 to 169 °C	–
Cc1ncc(C#N)c(Nc2ccc3[nH]ccc3c2C)c1-c1cc2cc(CN3CCN(C)CC3)ccc2o1 [Example 16, 6-methyl-4-[(4-methyl-1H-indol-5-yl)amino]-5-{5-[(4-methylpiperazin-1-yl)methyl]-1-benzofuran-2-yl}nicotinonitrile]	2.7 nM	218 to 220 °C	–
